Measured values from the NIST ThermoML archive (doi:10.1021/acs.jced.9b00249).

How the values were obtained:
[1] = for vapor or sublimation pressure: Diaphragm manometer; for mass density: isochoric method
[2] = xn = mol fraction of the nth substance listed; conditions: isochoric method

CCCCC [pentane]
Conditions	vapor or sublimation pressure [kPa]
[1], 406.9 K, Liquid	1300

[1], Liquid
Conditions	mass density [kg/m3]
417.1 K, 3060 kPa	484
428 K, 6070 kPa	484
436.6 K, 8340 kPa	484
446.3 K, 10730 kPa	484
453.2 K, 12730 kPa	484

CCC [propane]
[1], Liquid
Conditions	vapor or sublimation pressure [kPa]
305.9 K	1030
319.2 K	1270
326.8 K	2260
334.3 K	2350
349.3 K	3040
362.1 K	3920
367.9 K	4440

[1], Gas
Conditions	mass density [kg/m3]
383.7 K, 5980 kPa	292
397.4 K, 7350 kPa	292
402.9 K, 7940 kPa	292
434 K, 12760 kPa	292

COC [dimethyl ether]
[1]
Conditions	mass density [kg/m3]
382.8 K, 4580 kPa, Liquid	451
402.8 K, 8580 kPa, Gas	451
411.6 K, 10360 kPa, Gas	451
419.5 K, 12150 kPa, Gas	451
425.4 K, 13670 kPa, Gas	451
429.8 K, 14600 kPa, Gas	451
432.6 K, 15210 kPa, Gas	451
437.2 K, 16200 kPa, Gas	451

CCCCC [pentane] + CCC
[2]
Conditions	mass density [kg/m3]
319.6 K, 5320 kPa, Liquid, x2 = 0.849	507
320.4 K, 12800 kPa, Liquid, x2 = 0.512	567
324.9 K, 8620 kPa, Liquid, x2 = 0.849	507
326.1 K, 16230 kPa, Liquid, x2 = 0.512	567
328.6 K, 10330 kPa, Liquid, x2 = 0.849	507
331.8 K, 12010 kPa, Liquid, x2 = 0.849	507
332 K, 19720 kPa, Liquid, x2 = 0.512	567
336.2 K, 14280 kPa, Liquid, x2 = 0.849	507
337.7 K, 22920 kPa, Liquid, x2 = 0.512	567
340.8 K, 16310 kPa, Liquid, x2 = 0.849	507
341.2 K, 24970 kPa, Liquid, x2 = 0.512	567
345.3 K, 18250 kPa, Liquid, x2 = 0.849	507
349.2 K, 20380 kPa, Liquid, x2 = 0.849	507
353.6 K, 22340 kPa, Liquid, x2 = 0.849	507
357.2 K, 24290 kPa, Liquid, x2 = 0.849	507
394.8 K, 3250 kPa, Liquid, x2 = 0.551	401
397.7 K, 4520 kPa, Liquid, x2 = 0.78	311
404.7 K, 4010 kPa, Fluid (supercritical or subcritical phases), x2 = 0.551	401
406.5 K, 5640 kPa, Fluid (supercritical or subcritical phases), x2 = 0.78	311
409.3 K, 3610 kPa, Liquid, x2 = 0.474	384
410.5 K, 4620 kPa, Fluid (supercritical or subcritical phases), x2 = 0.551	401
416.5 K, 6760 kPa, Fluid (supercritical or subcritical phases), x2 = 0.78	311
418.3 K, 5640 kPa, Fluid (supercritical or subcritical phases), x2 = 0.551	401
419.2 K, 4730 kPa, Fluid (supercritical or subcritical phases), x2 = 0.474	384
428.6 K, 8280 kPa, Fluid (supercritical or subcritical phases), x2 = 0.78	311
428.9 K, 6560 kPa, Fluid (supercritical or subcritical phases), x2 = 0.474	384
437.3 K, 9610 kPa, Fluid (supercritical or subcritical phases), x2 = 0.78	311
439.5 K, 8280 kPa, Fluid (supercritical or subcritical phases), x2 = 0.474	384
447.3 K, 10720 kPa, Fluid (supercritical or subcritical phases), x2 = 0.78	311
449.2 K, 10010 kPa, Fluid (supercritical or subcritical phases), x2 = 0.474	384
456.4 K, 12260 kPa, Fluid (supercritical or subcritical phases), x2 = 0.78	311

CCOCC [diethyl ether] + CCC
[2]
Conditions	mass density [kg/m3]
351.8 K, 2080 kPa, Liquid, x2 = 0.748	474
359.2 K, 4110 kPa, Fluid (supercritical or subcritical phases), x2 = 0.748	474
362.8 K, 2080 kPa, Liquid, x2 = 0.651	474
369.5 K, 7470 kPa, Fluid (supercritical or subcritical phases), x2 = 0.748	474
370.3 K, 3910 kPa, Fluid (supercritical or subcritical phases), x2 = 0.651	474
372 K, 3100 kPa, Liquid, x2 = 0.743	401
379.4 K, 6660 kPa, Fluid (supercritical or subcritical phases), x2 = 0.651	474
379.4 K, 10830 kPa, Fluid (supercritical or subcritical phases), x2 = 0.748	474
382.7 K, 4110 kPa, Fluid (supercritical or subcritical phases), x2 = 0.743	401
387.9 K, 9300 kPa, Fluid (supercritical or subcritical phases), x2 = 0.651	474
390.1 K, 5340 kPa, Fluid (supercritical or subcritical phases), x2 = 0.743	401
391.1 K, 14590 kPa, Fluid (supercritical or subcritical phases), x2 = 0.748	474
394.9 K, 4010 kPa, Liquid, x2 = 0.655	401
397.1 K, 12250 kPa, Fluid (supercritical or subcritical phases), x2 = 0.651	474
399.9 K, 4420 kPa, Liquid, x2 = 0.742	311
401.1 K, 7670 kPa, Fluid (supercritical or subcritical phases), x2 = 0.743	401
401.1 K, 17840 kPa, Fluid (supercritical or subcritical phases), x2 = 0.748	474
401.9 K, 5030 kPa, Fluid (supercritical or subcritical phases), x2 = 0.655	401
405.6 K, 5640 kPa, Fluid (supercritical or subcritical phases), x2 = 0.655	401
407.5 K, 5130 kPa, Fluid (supercritical or subcritical phases), x2 = 0.742	311
407.7 K, 15710 kPa, Fluid (supercritical or subcritical phases), x2 = 0.651	474
409.2 K, 4620 kPa, Liquid, x2 = 0.651	311
410.7 K, 9710 kPa, Fluid (supercritical or subcritical phases), x2 = 0.743	401
411.4 K, 21600 kPa, Fluid (supercritical or subcritical phases), x2 = 0.748	474
412 K, 6760 kPa, Fluid (supercritical or subcritical phases), x2 = 0.655	401
417.7 K, 6250 kPa, Fluid (supercritical or subcritical phases), x2 = 0.742	311
418.5 K, 5130 kPa, Fluid (supercritical or subcritical phases), x2 = 0.651	311
419.2 K, 19360 kPa, Fluid (supercritical or subcritical phases), x2 = 0.651	474
419.7 K, 11640 kPa, Fluid (supercritical or subcritical phases), x2 = 0.743	401
422.6 K, 8790 kPa, Fluid (supercritical or subcritical phases), x2 = 0.655	401
429.1 K, 6250 kPa, Fluid (supercritical or subcritical phases), x2 = 0.651	311
429.1 K, 7570 kPa, Fluid (supercritical or subcritical phases), x2 = 0.742	311
429.6 K, 10210 kPa, Fluid (supercritical or subcritical phases), x2 = 0.655	401
430.4 K, 13770 kPa, Fluid (supercritical or subcritical phases), x2 = 0.743	401
437.5 K, 11740 kPa, Fluid (supercritical or subcritical phases), x2 = 0.655	401
437.5 K, 15300 kPa, Fluid (supercritical or subcritical phases), x2 = 0.743	401
437.8 K, 8590 kPa, Fluid (supercritical or subcritical phases), x2 = 0.742	311
438.5 K, 7270 kPa, Fluid (supercritical or subcritical phases), x2 = 0.651	311
447.3 K, 9710 kPa, Fluid (supercritical or subcritical phases), x2 = 0.742	311
447.6 K, 13670 kPa, Fluid (supercritical or subcritical phases), x2 = 0.655	401
449 K, 8390 kPa, Fluid (supercritical or subcritical phases), x2 = 0.651	311
452.4 K, 18650 kPa, Fluid (supercritical or subcritical phases), x2 = 0.743	401
455 K, 15200 kPa, Fluid (supercritical or subcritical phases), x2 = 0.655	401
458.5 K, 9500 kPa, Fluid (supercritical or subcritical phases), x2 = 0.651	311
459 K, 11220 kPa, Fluid (supercritical or subcritical phases), x2 = 0.742	311
466.1 K, 12150 kPa, Fluid (supercritical or subcritical phases), x2 = 0.742	311
467.4 K, 10620 kPa, Fluid (supercritical or subcritical phases), x2 = 0.651	311
470 K, 10930 kPa, Fluid (supercritical or subcritical phases), x2 = 0.651	311

CCOCC [diethyl ether]
[1], Liquid
Conditions	vapor or sublimation pressure [kPa]
424.3 K	1790
434.3 K	2150
438.9 K	2390

[1], Liquid
Conditions	mass density [kg/m3]
442.3 K, 3250 kPa	473
445.3 K, 3750 kPa	473
447.8 K, 4200 kPa	473
450.2 K, 4750 kPa	473
453.9 K, 5680 kPa	473
459.4 K, 6890 kPa	473
